Values after ≈ are worked out from the molar mass of the structure shown.

For data set [1], the system named is Citrobacter werkmanii Brenner ATCC-51114. The data set can be described thus: MIC (50% NHS). The format is cell-based. The following applies: ATCC51114; Citrobacter werkmanii Brenner ATCC-51114, 50% NHS.
The subject of data set [2] is Staphylococcus aureus ATCC-29213. The data set can be described thus: MIC (50% NHS). The format is cell-based. The following applies: ATCC29213; Staphylococcus aureus ATCC-29213, 50% NHS.
The test system of data set [3] is Pseudomonas aeruginosa ATCC-BAA-47 (PAO1). As to the kind of experiment: MIC (50% NHS). In kind it is cell-based.
The test system of data set [4] is Escherichia coli ATCC 25922. The data set can be described thus: Deep thigh infection model in neutropenic mice, CFU count. The format is in vivo. The conditions noted are these: 24 h P.I.; for colony forming units (CFU) compared with ciprofloxacin: 12.5 mg/kg compound vs 2.5 mg/kg ciprofloxacin, four doses; for colony forming units (CFU) as compared to the control: neutropenic CD-1 mice, thigh, 12.5 mg/kg IV four doses (1, 3, 5, 7 h P.I.). How it is done:
The in vivo activity to determine the CFU following administration of the test compounds was determined on a deep thigh infection caused by Escherichia coli ATCC 25922 in mice. The in vivo efficacy of various compounds was measured using a modified version of the deep-thigh infection model disclosed in Selbie, F R, et al., Br. J. Exp. Pathol. 33 (1952), 315-26 and Zuluaga, A F, et al., BMC Infect. Dis. 6 (2005) 55, each of which is hereby incorporated by reference. The efficacy was determined measuring the number of bacterial colony forming units (“CFU”) of mice injected with Escherichia coli […] on Day 0 following administration of the compounds.
Female CD-1 mice, aged 6-8-weeks, were purchased from local licensed supplier. The mice were allowed to acclimate for 3 days in the animal facility before experimentation began. The mice were then rendered neutropenic by intraperitoneal (“I.P.”) injection of 150 mg/kg cyclophosphamide on Day-4 (4 days prior to the injection of bacteria), and a maintaining dose of 100 mg/kg cyclophosphamide on Day-1 (1 day prior to the injection of bacteria). This regimen conditioned mice to neutropenia during the study. On the day of bacterial challenge (Day 0), Escherichia coli ATCC 29522 was injected into each mouse. Prior to injection, the bacterium was streaked out from −80° C. glycerol stock onto a tryptone soya agar (“TSA”) plate on Day-1. On the day of bacterial challenging (Day 0), single colonies on the agar plate were suspended in sterile saline and the final bacterial concentration was adjusted to approximately 1×10^6 CFU/ml based on turbidity readout of the bacterial solution from a Siemens MicroScan turbidity meter. The bacterial suspension was kept on ice temporarily prior to injection once the desired concentration was achieved.
On Day 0, 100 μl of bacterial suspension as prepared above was injected into the posterior quadriceps muscles of the right thigh. Antibiotic compositions comprising a tested compound in a vehicle were given to mice through tail vein injection at one hours, three hours, five hours and 7 hours post of infection (“P.I.”). The vehicle for each antibiotic composition is 5% (w/v) solutol HS15 in water. At 24 h P.I., all mice were euthanized. Infected thigh muscles for each tested mouse were excised and stored in ice-cold sterile saline for transfer to a Biosafety Level 2 (“BSL-2”) laboratory for subsequent CFU counting. Within one hour following sample collection, the muscles from mice tested with the same antibiotic composition were homogenized by a homogenizer (IKA T10 basic S25), serially diluted in sterile saline, and plated on TSA plates. The plates were incubated at 30° C. for approximately 18 h. The CFU were counted and calculated as CFU/mouse. The animal facility was AAALAC accredited, and the animal welfare in this experiment was in compliance of IACUC.
The number of colony forming units was independently measured in five different mice per composition administered. Each mouse was administered a mass of active compound per kg weight of the mouse four times a day. Mice were administered a composition without a test compound, compositions comprising 2.5 mg(ciprofloxacin)/kg, 12.5 mg(Compound 17)/kg, 12.5 mg(Compound 23)/kg, and 12.5 mg(Compound 24)/kg).

Data set [5] has as its system Staphylococcus aureus NRS-384. The data set can be described thus: MIC (50% NHS). In kind it is cell-based. The conditions noted are these: NRS384; Staphylococcus aureus NRS-384, 50% NHS.
The subject of data set [6] is Enterococcus faecium ATCC-700221. As to the kind of experiment: MIC (50% NHS). In kind it is cell-based. The conditions noted are these: ATCC700221; Enterococcus faecium ATCC-700221, 50% NHS.
Data set [7] in a line: Plasma protein binding (PPB) assay. The format is in vitro ADME. The conditions noted are these: % of free compound. As for the experimental part:
(§1) The activity profiles of compounds 17, 23, and 24 were assessed by various in vitro measurements. The minimum inhibitory concentration (MIC), MIC in the presence of normal human serum (NHS), microsome CLint, the % of free compounds following a plasma protein biding (PPB) assay, and the concentration of drug where the human-ether-à-go-go-related gene (hERG gene) channel block is halved (IC50(hERG)) were measured using standard in vitro protocols for compounds 17, 23, and 24. Unless otherwise indicated, measurements (e.g., microsomal clearance) were performed using a standard microsomal stability assay using LC/MS/MS techniques.

A short description of data set [8]: Microsomal stability assay, mouse CLint. Also on record: unit not given here. The following applies: mouse liver microsomes, 1 μM, 0.5 mg/ml microsomal protein. The format is in vitro ADME. As for the experimental part:
as §1
Test compounds were incubated at 37° C. with liver microsomes pooled from multiple donors at 1 μM in the presence of a NADPH regenerating system at 0.5 mg/ml microsomal protein. Positive of testosterone (a 3A4 substrate), propafenone (a 2D6 substrate), and diclofenac (a 2c9 substrate) were similarly incubated with microsomes in the presence of a NADPH regenerating system. Samples are removed at 0, 5, 10, 20, 30, and 60 minutes of incubation and immediately mixed with cold acetonitrile containing an internal standard (IS). Samples are then analyzed by LC/MS/MS to determine the disappearance of the test compound and are assessed based on the peak area ratios of analyte/IS (no standard curve).
In general terms: Liver microsomes are vesicles of endoplasmic reticulum, rich in cytochrome P450 enzymes.

Data set [9] concerns Acinetobacter baumannii ATCC 17978. The data set can be described thus: MIC (50% NHS). In kind it is cell-based. The conditions noted are these: ATCC17978; Acinetobacter baumannii ATCC 17978, 50% NHS.
The subject of data set [10] is Klebsiella pneumonia ATCC-43816. The data set can be described thus: MIC (50% NHS). The format is cell-based. The following applies: Klebsiella pneumoniae, ATCC43816; Klebsiella pneumonia ATCC-43816, 50% NHS.
The subject of data set [11] is Enterococcus faecalis ATCC-29212. As to the kind of experiment: MIC (50% NHS). The format is cell-based. The conditions noted are these: ATCC29212; Enterococcus faecalis ATCC-29212, 50% NHS.
Data set [12] concerns Enterobacter cloacae ATCC-222. As to the kind of experiment: MIC (50% NHS). The conditions noted are these: ATCC222; Enterobacter cloacae ATCC-222, 50% NHS. In kind it is cell-based.
In data set [13] the test system is Staphylococcus aureus WX1-009. The data set can be described thus: MIC (50% NHS). The format is cell-based. The following applies: WX1009; Staphylococcus aureus WX1-009, 50% NHS.
In data set [14] the test system is Enterobacter cloacae ATCC-BAA-1143. The data set can be described thus: MIC (50% NHS). The format is cell-based. The conditions noted are these: ATCCBAA1143; Enterobacter cloacae ATCC-BAA-1143, 50% NHS.

With `CN1CC2CN(C(=O)Nc3cc(F)cc(F)c3)CC(C1)C2(O)c1ccc(-c2ccc(CN)cc2C#N)cc1` [Compound 23, (1R,5S,9r)-9-(4′-(aminomethyl)-2′-cyano-[1,1′-biphenyl]-4-yl)-N-(3,5-difluorophenyl)-9-hydroxy-7-methyl-3,7-diazabicyclo[3.3.1]nonane-3-carboxamide], the MIC (commonly the lowest concentration that inhibits growth of the organism) in data set [1] was determined as 4 µg/mL (≈ 7.73 µM); in data set [2], 0.13 µg/mL (≈ 0.251 µM); in data set [3], 2 µg/mL (≈ 3.86 µM); in data set [5], 0.13 µg/mL (≈ 0.251 µM); in data set [6], 1 µg/mL (≈ 1.93 µM); in data set [9] it was 64 µg/mL (≈ 124 µM). The MIC in [10] was 2 µg/mL (≈ 3.86 µM); in [11], 0.5 µg/mL (≈ 0.966 µM); in [12], 0.5 µg/mL (≈ 0.966 µM); in data set [13] it was at most 0.06 µg/mL; in data set [14], 2 µg/mL (≈ 3.86 µM). Further, the “colony forming units (CFU) compared with ciprofloxacin” value in data set [4] is reported as “Comparable results to ciprofloxacin”. The “colony forming units (CFU) as compared to the control” value in data set [4] is on record as “decrease the amount of colony forming units”. Also, the fraction unbound (as a rule, the share of the substance not bound to proteins or other matrix) in data set [7] came to 0.27. Besides, the “mouse CLint” value in data set [8] is recorded as 105.
`CNCc1ccc(-c2ccc(C3(O)C4CN(C)CC3CN(C(=O)Nc3cc(F)cc(F)c3)C4)nc2)c(C#N)c1` [Compound 17, (1R,5S,9r)-9-(5-(2-cyano-4-((methylamino)methyl)phenyl)pyridin-2-yl)-N-(3,5-difluorophenyl)-9-hydroxy-7-methyl-3,7-diazabicyclo[3.3.1]nonane-3-carboxamide]: the MIC in data set [1] is 3.56 µg/mL (≈ 6.68 µM); in data set [2], at most 0.11 µg/mL; in [3], 1.78 µg/mL (≈ 3.34 µM); in data set [5], 0.22 µg/mL (≈ 0.413 µM); in data set [6], 0.89 µg/mL (≈ 1.67 µM); in data set [9], 28.5 µg/mL (≈ 53.5 µM). Also, the MIC in data set [10] is 1.78 µg/mL (≈ 3.34 µM); in data set [11] it was 0.45 µg/mL (≈ 0.845 µM); in data set [12] it was 0.45 µg/mL (≈ 0.845 µM); in data set [13], at most 0.11 µg/mL; in [14], 3.56 µg/mL (≈ 6.68 µM). The “colony forming units (CFU) compared with ciprofloxacin” value in data set [4] is reported as “Comparable results to ciprofloxacin”. In addition, the “colony forming units (CFU) as compared to the control” value in data set [4] is “decrease the amount of colony forming units”. In data set [7], this compound yielded a fraction unbound of 0.45. The “mouse CLint” value in [8] is on record as above 145.
Take `CN1CC2CN(C(=O)Nc3cc(F)cc(F)c3)CC(C1)C2(O)c1ccc(-c2ccc(CN)cc2C#N)cn1` [Compound 24, (1R,5S,9r)-9-(5-(4-(aminomethyl)-2-cyanophenyl)pyridin-2-yl)-N-(3,5-difluorophenyl)-9-hydroxy-7-methyl-3,7-diazabicyclo[3.3.1]nonane-3-carboxamide]: the minimal inhibitory concentration (MIC) in [1] is 4 µg/mL (≈ 7.71 µM); in data set [2], 0.25 µg/mL (≈ 0.482 µM); in data set [3], 2 µg/mL (≈ 3.86 µM); in data set [5], 0.5 µg/mL (≈ 0.964 µM); in data set [6], 4 µg/mL (≈ 7.71 µM); in data set [9], 64 µg/mL (≈ 123 µM). Moreover, the minimum inhibitory concentration (MIC) in data set [10] is 4 µg/mL (≈ 7.71 µM); in data set [11] it was 1 µg/mL (≈ 1.93 µM); in data set [12] it was 0.5 µg/mL (≈ 0.964 µM); in [13], 0.25 µg/mL (≈ 0.482 µM); in data set [14], 2 µg/mL (≈ 3.86 µM). For the same compound, in data set [4], the “colony forming units (CFU) as compared to the control” value was “decrease the amount of colony forming units”. In [7], the fraction unbound was 0.38. Moreover, the “mouse CLint” value in data set [8] is on record as above 145.

Values taken from patent publication US10654852B2, “Antibiotics and methods of using same” (THE BROAD INSTITUTE, INC., priority 2016, dated 2020).
